Experimental data from patent publication US10168342B2, “Lipid probes and uses thereof” (THE SCRIPPS RESEARCH INSTITUTE, priority 2015, dated 2019).
Read-outs that look alike come from different tables or passages of the source.

Legend:
[1] = target: T1, AEA-DA lipid probe targets in Neuro2a cells (Mus musculus, UniProt O08579); settings: for SILAC ratio, EMD (O08579): Neuro2a cells, AEA-DA probe
T1 sequence (O08579 1-259): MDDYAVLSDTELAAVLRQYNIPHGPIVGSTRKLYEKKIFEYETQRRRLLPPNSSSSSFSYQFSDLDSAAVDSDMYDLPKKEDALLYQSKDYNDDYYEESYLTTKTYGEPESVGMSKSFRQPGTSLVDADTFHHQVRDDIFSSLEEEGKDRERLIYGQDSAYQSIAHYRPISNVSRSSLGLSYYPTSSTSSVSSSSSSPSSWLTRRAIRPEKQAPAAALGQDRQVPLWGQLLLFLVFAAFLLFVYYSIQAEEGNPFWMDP

[2] = target: T2, AEA-DA lipid probe targets in Neuro2a cells (Mus musculus, UniProt Q9WV54)
T2 sequence (Q9WV54 19-394): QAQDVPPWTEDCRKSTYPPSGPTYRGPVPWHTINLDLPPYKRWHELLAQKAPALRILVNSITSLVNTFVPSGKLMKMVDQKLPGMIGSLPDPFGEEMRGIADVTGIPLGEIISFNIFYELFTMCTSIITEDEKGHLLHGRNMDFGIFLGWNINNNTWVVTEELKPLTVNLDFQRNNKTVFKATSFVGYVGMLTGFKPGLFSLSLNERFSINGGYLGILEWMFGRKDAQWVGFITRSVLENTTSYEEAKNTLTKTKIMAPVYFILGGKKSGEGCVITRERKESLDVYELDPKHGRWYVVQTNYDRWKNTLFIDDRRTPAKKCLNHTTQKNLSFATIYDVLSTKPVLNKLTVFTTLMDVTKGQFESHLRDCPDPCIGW

[3] = target: T3, AEA-DA lipid probe targets in Neuro2a cells (Mus musculus, UniProt P35564)
T3 sequence (P35564 21-591): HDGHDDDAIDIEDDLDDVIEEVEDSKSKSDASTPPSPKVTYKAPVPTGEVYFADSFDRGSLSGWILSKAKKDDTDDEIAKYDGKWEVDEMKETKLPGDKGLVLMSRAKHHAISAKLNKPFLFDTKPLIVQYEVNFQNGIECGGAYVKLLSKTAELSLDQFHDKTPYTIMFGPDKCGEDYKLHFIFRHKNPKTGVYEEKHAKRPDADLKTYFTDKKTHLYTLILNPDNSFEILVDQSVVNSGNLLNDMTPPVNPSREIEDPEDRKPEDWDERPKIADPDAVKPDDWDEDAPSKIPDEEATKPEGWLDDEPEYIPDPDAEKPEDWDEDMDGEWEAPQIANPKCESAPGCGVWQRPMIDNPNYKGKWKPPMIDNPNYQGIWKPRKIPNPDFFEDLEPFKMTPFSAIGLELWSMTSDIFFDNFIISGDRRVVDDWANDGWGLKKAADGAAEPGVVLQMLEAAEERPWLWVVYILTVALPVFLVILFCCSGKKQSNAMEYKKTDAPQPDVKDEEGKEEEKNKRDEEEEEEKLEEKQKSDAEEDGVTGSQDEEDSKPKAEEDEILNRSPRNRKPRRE

[4] = target: T4, AEA-DA lipid probe targets in Neuro2a cells (Mus musculus, UniProt Q91V01); settings: for SILAC ratio, LPCAT3 (Q6P1A2): Neuro2a cells, AEA-DA probe
T4 sequence (Q91V01 1-487): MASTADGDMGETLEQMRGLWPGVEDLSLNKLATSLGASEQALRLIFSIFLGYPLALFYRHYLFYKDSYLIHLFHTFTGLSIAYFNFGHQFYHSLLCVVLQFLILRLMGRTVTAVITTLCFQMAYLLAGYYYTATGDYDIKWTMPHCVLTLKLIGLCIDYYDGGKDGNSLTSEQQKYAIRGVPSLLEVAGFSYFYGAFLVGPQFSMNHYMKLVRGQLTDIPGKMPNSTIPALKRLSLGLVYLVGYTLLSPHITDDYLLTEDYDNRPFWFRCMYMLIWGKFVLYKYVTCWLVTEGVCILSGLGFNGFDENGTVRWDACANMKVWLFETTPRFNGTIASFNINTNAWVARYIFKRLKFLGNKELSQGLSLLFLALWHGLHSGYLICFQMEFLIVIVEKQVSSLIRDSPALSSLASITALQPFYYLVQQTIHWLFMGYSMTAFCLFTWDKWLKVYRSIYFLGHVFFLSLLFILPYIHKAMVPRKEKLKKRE

[5] = target: T5, AEA-DA lipid probe targets in Neuro2a cells (Mus musculus, UniProt Q6GV12)
T5 sequence (Q6GV12 26-332): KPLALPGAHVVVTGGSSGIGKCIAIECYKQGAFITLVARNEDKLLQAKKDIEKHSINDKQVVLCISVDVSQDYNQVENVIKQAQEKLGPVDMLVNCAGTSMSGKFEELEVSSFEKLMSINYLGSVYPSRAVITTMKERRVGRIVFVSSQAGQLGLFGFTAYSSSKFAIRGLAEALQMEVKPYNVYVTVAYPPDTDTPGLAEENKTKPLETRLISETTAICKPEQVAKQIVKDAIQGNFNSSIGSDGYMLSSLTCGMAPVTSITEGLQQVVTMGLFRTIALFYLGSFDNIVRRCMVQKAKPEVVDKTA

[6] = target: T6, AEA-DA lipid probe targets in Neuro2a cells (Mus musculus, UniProt Q8R1L4)
T6 sequence (Q8R1L4 1-214): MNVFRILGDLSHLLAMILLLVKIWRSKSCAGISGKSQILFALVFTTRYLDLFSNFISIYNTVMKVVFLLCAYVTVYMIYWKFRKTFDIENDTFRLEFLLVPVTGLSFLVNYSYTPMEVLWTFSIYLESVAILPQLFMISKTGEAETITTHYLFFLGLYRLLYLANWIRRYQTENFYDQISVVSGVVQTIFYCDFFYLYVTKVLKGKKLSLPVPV

[7] = target: T7, AEA-DA lipid probe targets in Neuro2a cells (Mus musculus, UniProt Q8BGC4)
T7 sequence (Q8BGC4 1-377): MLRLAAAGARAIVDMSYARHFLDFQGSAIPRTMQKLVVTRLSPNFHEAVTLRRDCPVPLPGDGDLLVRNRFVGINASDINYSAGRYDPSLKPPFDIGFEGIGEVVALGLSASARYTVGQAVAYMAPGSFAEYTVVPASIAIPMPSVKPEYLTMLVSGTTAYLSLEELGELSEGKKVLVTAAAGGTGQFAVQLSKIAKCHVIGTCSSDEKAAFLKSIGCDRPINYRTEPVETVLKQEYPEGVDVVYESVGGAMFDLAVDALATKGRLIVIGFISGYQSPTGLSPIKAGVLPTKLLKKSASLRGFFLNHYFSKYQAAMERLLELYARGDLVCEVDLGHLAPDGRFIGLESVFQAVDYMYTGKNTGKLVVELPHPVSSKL

CCCCC/C=C\C/C=C\C/C=C\C/C=C\CCCC(=O)NCCO [AEA, anandamide, reference compound]
SILAC ratio, EMD (O08579) ([1]; competitor 200 μM): 1.4 | SILAC ratio, Emd ([1]; competitor 200 μM): 1.4 | SILAC ratio Asah1 ([2]; competitor 200 μM): 0.8 | SILAC ratio, Canx ([3]; competitor 200 μM): 1.6 | SILAC ratio, LPCAT3 (Q6P1A2) ([4]; competitor 200 μM): 1.4 | SILAC ratio, Lpcat3 ([4]; competitor 200 μM): 1.4 | SILAC ratio, Kdsr ([5]; competitor 200 μM): 3.6 | SILAC ratio, Kdelr3 ([6]; competitor 200 μM): 1.2 | SILAC ratio, Zadh2 ([7]; competitor 200 μM): 4.8

O=C(/C=C/c1cccnc1)NCCCCC1CCN(C(=O)c2ccccc2)CC1 [FK-866, reference compound]
SILAC ratio, EMD (O08579) ([1]; competitor 25 μM): 1.4 | SILAC ratio, Emd ([1]; competitor 25 μM): 1.4 | SILAC ratio Asah1 ([2]; competitor 25 μM): 1.3 | SILAC ratio, Canx ([3]; competitor 25 μM): 1.2 | SILAC ratio, LPCAT3 (Q6P1A2) ([4]; competitor 25 μM): 2.3 | SILAC ratio, Lpcat3 ([4]; competitor 25 μM): 2.3 | SILAC ratio, Kdsr ([5]; competitor 25 μM): 1.1 | SILAC ratio, Kdelr3 ([6]; competitor 25 μM): 1.1 | SILAC ratio, Zadh2 ([7]; competitor 25 μM): 12.6

CN1CCN(C(=O)c2c(-c3ccccc3)c3cc([N+](=O)[O-])ccc3n2C)CC1 [KML110, (1-Methyl-5-nitro-3-phenyl-1H-indol-2-yl)(4-methylpiperazin-1-yl)methanone]
SILAC ratio, Emd ([1]; competitor 25 μM): 1.7 | SILAC ratio Asah1 ([2]; competitor 25 μM): 1.2 | SILAC ratio, Canx ([3]; competitor 25 μM): 1.6 | SILAC ratio, Lpcat3 ([4]; competitor 25 μM): 1.3 | SILAC ratio, Kdsr ([5]; competitor 25 μM): 1.6 | SILAC ratio, Kdelr3 ([6]; competitor 25 μM): 1.2 | SILAC ratio, Zadh2 ([7]; competitor 25 μM): 1.5

CN1CCN(C(=O)c2[nH]c3ccc([N+](=O)[O-])cc3c2-c2ccccc2)CC1 [MJN228, (4-Methylpiperazin-1-yl)(5-nitro-3-phenyl-1H-indol-2-yl)methanone]
SILAC ratio, EMD (O08579) ([1]; competitor 25 μM): 2.4 | SILAC ratio, Emd ([1]; competitor 10 μM): 1.8 | SILAC ratio, Emd ([1]; competitor 25 μM): 2.4 | SILAC ratio, Emd ([1]; competitor 50 μM): 2.5 | SILAC ratio, Emd ([1]; competitor 100 μM): 4.5 | SILAC ratio Asah1 ([2]; competitor 10 μM): 1.4 | SILAC ratio Asah1 ([2]; competitor 25 μM): 1.6 | SILAC ratio Asah1 ([2]; competitor 50 μM): 2.2 | SILAC ratio Asah1 ([2]; competitor 100 μM): 2.1 | SILAC ratio, Canx ([3]; competitor 10 μM): 1.3 | SILAC ratio, Canx ([3]; competitor 25 μM): 1.7 | SILAC ratio, Canx ([3]; competitor 50 μM): 1.8 | SILAC ratio, Canx ([3]; competitor 100 μM): 2.6 | SILAC ratio, Lpcat3 ([4]; competitor 10 μM): 1.2 | SILAC ratio, Lpcat3 ([4]; competitor 25 μM): 1.2 | SILAC ratio, Lpcat3 ([4]; competitor 50 μM): 1.4 | SILAC ratio, Lpcat3 ([4]; competitor 100 μM): 1.5 | SILAC ratio, Kdsr ([5]; competitor 10 μM): 1.1 | SILAC ratio, Kdsr ([5]; competitor 25 μM): 1.5 | SILAC ratio, Kdsr ([5]; competitor 50 μM): 1.3 | SILAC ratio, Kdsr ([5]; competitor 100 μM): 1.7 | SILAC ratio, Kdelr3 ([6]; competitor 10 μM): 1.2 | SILAC ratio, Kdelr3 ([6]; competitor 25 μM): 1.3 | SILAC ratio, Kdelr3 ([6]; competitor 50 μM): 1.3 | SILAC ratio, Kdelr3 ([6]; competitor 100 μM): 1.6 | SILAC ratio, Zadh2 ([7]; competitor 10 μM): 1.4 | SILAC ratio, Zadh2 ([7]; competitor 25 μM): 1.5 | SILAC ratio, Zadh2 ([7]; competitor 50 μM): 2.3 | SILAC ratio, Zadh2 ([7]; competitor 100 μM): 6.0

C=CCN(C)CCCCCCOc1ccc(C(=O)c2ccc(Br)cc2)c(F)c1 [Ro 48-8071, reference compound]
SILAC ratio, EMD (O08579) ([1]; competitor 25 μM): 1.3 | SILAC ratio, Emd ([1]; competitor 25 μM): 1.3 | SILAC ratio Asah1 ([2]; competitor 25 μM): 1.0 | SILAC ratio, Canx ([3]; competitor 25 μM): 1.2 | SILAC ratio, LPCAT3 (Q6P1A2) ([4]; competitor 25 μM): 1.1 | SILAC ratio, Lpcat3 ([4]; competitor 25 μM): 1.1 | SILAC ratio, Kdsr ([5]; competitor 25 μM): 1.6 | SILAC ratio, Kdelr3 ([6]; competitor 25 μM): 0.9 | SILAC ratio, Zadh2 ([7]; competitor 25 μM): 1.0
